# Results taken from patent US9193689B2, “3-aryl-5-substituted-isoquinolin-1-one compounds and their therapeutic use” (INSTITUTE OF CANCER RESEARCH: ROYAL CANCER HOSPITAL (THE), priority 2012, dated 2015).
# Like-named read-outs stand apart in the source and are kept apart here.
# How the values were obtained:
# DLD1 cells = assay: Long-Term Clonogenic Assay (DLD1 cells); format: cell-based
# Experimental: Clonogenic Inhibition in DLD1 or HT55 Cells
# In order to determine the efficacy of chronic dosing of putative TNKS inhibitors, long term clonogenic or ‘colony formation’ assays were carried out. This included the sparse seeding of cells in a 6-well dish followed by continuous dosing of cells over 12-14 days (depending on relative cell growth). Appropriate cell lines (DLD1 or HT55) were seeded at 500 cells/well in a 6-well dish in DMEM supplemented with FBS. […] Dosages were carried out in triplicate. Cell media containing compound or DMSO only was replenished every 48 hours. Termination of the assay included the fixation of cells with trichlororacetic acid (1 mL, 10% (v/v), Sigma Aldrich, cat. no. T6399) and incubation for 16 hours at 4° C. Fixed cells were then washed with water, allowed to dry and stained with sulforhodamine B solution (sulforhodamine B 0.05% (w/v), Sigma Aldrich cat. no. S1402, acetic acid 1% (v/v), Fisher Scientific, cat. no. A/0400/PB17)) for 12 hours at room temperature. The stain was then removed and the cells washed copiously with aqueous acetic acid (1% v/v) and allowed to dry.
# The data was normalised to the DMSO control and was expressed as surviving fraction as a function of inhibitor dose.
# TNKS1 = TNKS1 (Homo sapiens, UniProt O95271); assay: TNKS1/PARP Biochemical Assay (TNKS1)
# [1] = test system: TNKS stabilisation in HeLa, HT1080, HTC75 cells
# [2] = test system: Wnt activity in DLD1-Wnt-Luc cells; assay: Wnt-Luciferase Reporter Assay
# [3] = read-out: Wnt IC50, DLD1-Wnt-Luc cells
SMILES,IC50 (TNKS1),IC50 ([2]; read-out: Wnt IC50),"IC50 [2, 3]",Clonogenic SF50 (DLD1) (DLD1 cells),stabilize TNKS (Western blotting) [1]
CN(C)C1CCN(c2ccc(-c3cc4c(Cl)cccc4c(=O)[nH]3)cn2)C1 (stereo not shown) [IQ-009],< 500 nM,,,< 2 µM,
Cc1cccc2c(=O)[nH]c(-c3ccc(CN4CCC(N(C)C)CC4)cc3)cc12 [IQ-053],,,,,stabilize TNKS
CN1CCN(Cc2ccc(-c3cc4c(Cl)cccc4c(=O)[nH]3)cc2)CC1 [IQ-043],< 500 nM,,,< 2 µM,
Cc1ccc(F)c2c(=O)[nH]c(-c3ccc(C(=O)N4CCN(C)CC4)nc3)cc12 [IQ-221],< 500 nM,,< 5000 nM,,
"Cc1cccc2c(=O)[nH]c(-c3ccc(CN4CCC(O)CC4)cc3)cc12 [IQ-074, 3-[4-(4-Hydroxy-piperidin-1-ylmethyl)-phenyl]-5-methyl-2H-isoquinolin-1-one]",< 50 nM,,,< 2 µM,
"Cc1cccc2c(=O)[nH]c(-c3ccc(C(=O)N4CCN(CC5CC5)CC4)cn3)cc12 [IQ-223, 3-[5-(4-Cyclopropylmethyl-piperazine-1-carbonyl)-pyridin-2-yl]-5-methyl-2H-isoquinolin-1-one]",76 nM,1340 nM,< 5000 nM,,
O=c1[nH]c(-c2ccc(S(=O)(=O)N3CCNCC3)cc2)cc2c(Cl)cccc12 [IQ-124],< 50 nM,,< 5000 nM,,
Cc1cccc2c(=O)[nH]c(-c3ccc(CN4CCN(C)C(=O)C4)cc3)cc12 [IQ-054],< 20 nM,,,< 2 µM,
"C#Cc1cccc2c(=O)[nH]c(-c3ccc(CN4CCNCC4)cc3)cc12 [IQ-230, 5-Ethynyl-3-(4-piperazin-1-ylmethylphenyl)-2H-isoquinolin-1-one]",< 500 nM,,< 5000 nM,,
"Cc1cccc2c(=O)[nH]c(-c3cnc(N4CCN(C(=O)C5CC5)CC4)nc3)cc12 [IQ-157, 3-[2-(4-Cyclopropanecarbonyl-piperazin-1-yl)-pyrimidin-5-yl]-5-methyl-2H-isoquinolin-1-one]",51 nM,41 nM,,,
Cc1cccc2c(=O)[nH]c(-c3ccc(C(=O)N4CCN(C)CC4)cc3F)cc12 [IQ-164],< 500 nM,,< 5000 nM,,
O=c1[nH]c(-c2ccc(CN3CCNCC3)cc2)cc2c(Br)cccc12 [IQ-150],< 500 nM,,< 5000 nM,,
CN(C)CCOc1ccc(-c2cc3c(Br)cccc3c(=O)[nH]2)cc1 [IQ-132],< 500 nM,,< 5000 nM,,
Cc1cccc2c(=O)[nH]c(-c3ccc(C(=O)N4CCOCC4)cc3F)cc12 [IQ-163],< 500 nM,,< 5000 nM,,
Cc1cccc2c(=O)[nH]c(-c3ccc(CN4C[C@@H]5C[C@H]4CN5)cc3)cc12 [IQ-086],< 20 nM,,,< 2 µM,
CN1CCN(Cc2ccc(-c3cc4c(C5CC5)cccc4c(=O)[nH]3)cc2)CC1 [IQ-046],< 500 nM,,< 5000 nM,,
Cc1cccc2c(=O)[nH]c(-c3ccc(C(=O)N4CCC(N(C)C)CC4)cc3)cc12 [IQ-106],< 50 nM,,,< 2 µM,
CN1CCN(c2ccc(-c3cc4c(Cl)cccc4c(=O)[nH]3)cn2)CC1 [IQ-002],39 nM,179 nM,,,
Cc1cccc2c(=O)[nH]c(-c3ccc(C(C)N4CCN(C)CC4)cc3)cc12 (stereo not shown) [IQ-048],< 20 nM,,,< 2 µM,
Cc1cccc2c(=O)[nH]c(-c3ccc(C(=O)N4CCN(CC5CC5)CC4)cc3F)cc12 [IQ-165],< 500 nM,,< 5000 nM,,
Cc1cccc2c(=O)[nH]c(-c3cnc(N4CCNCC4)c(F)c3)cc12 [IQ-023],< 50 nM,,,< 2 µM,

# Further lines, with some results ahead:
IC50 (TNKS1),IC50 ([2]; read-out: Wnt IC50),"IC50 [2, 3]",SMILES,Clonogenic SF50 (DLD1) (DLD1 cells),stabilize TNKS (Western blotting) [1]
< 50 nM,,,"Cc1cccc2c(=O)[nH]c(-c3ccc(CN4CCNCC4C)cc3)cc12 (single isomer, unassigned) [IQ-051-3]",< 2 µM,
< 20 nM,,,Cc1cccc2c(=O)[nH]c(-c3ccc(N(C)C)cc3)cc12 [IQ-001],< 2 µM,
< 50 nM,,,"Cc1cccc2c(=O)[nH]c(-c3ccc(CN4CCNC(C)C4)cc3)cc12 (single isomer, unassigned) [IQ-084-2]",< 2 µM,
< 50 nM,,,Cc1cccc2c(=O)[nH]c(-c3ccc(S(=O)(=O)N4CCN(C)CC4)cc3)cc12 [IQ-121],< 2 µM,
< 50 nM,,,CN(C)CCN1CCN(c2ccc(-c3cc4c(Cl)cccc4c(=O)[nH]3)cn2)CC1 [IQ-019],< 2 µM,
24 nM,611 nM,,"O=C(C1CC1)N1CCN(c2ncc(-c3cc4c(O)cccc4c(=O)[nH]3)cn2)CC1 [REF-6, reference compound]",,
24 nM,742 nM,,"CN1CCN(c2ccc(-c3cc4ccccc4c(=O)[nH]3)cn2)CC1 [REF-3, reference compound]",,
26 nM,274 nM,,Cc1cccc2c(=O)[nH]c(-c3ccc(C(=O)N4CCN(C)CC4)nc3)cc12 [IQ-220],,
29 nM,42 nM,,Cc1cc(F)cc2c(=O)[nH]c(-c3ccc(CN4CCN(C)CC4)cc3)cc12 [IQ-080],,
< 50 nM,,,"Cc1cccc2c(=O)[nH]c(-c3ccc(CN4CCNC(C)C4)cc3)cc12 (single isomer, unassigned) [IQ-084-1]",< 2 µM,
33 nM,825 nM,,"CN1CCN(c2ncc(-c3cc4ccccc4c(=O)[nH]3)cn2)CC1 [REF-1, reference compound]",,
17 nM,> 10000 nM,,"CN(C)CCOc1ccc(-c2cc3ccccc3c(=O)[nH]2)cc1 [REF-5, reference compound]",,
< 20 nM,,,Cc1cc(F)cc2c(=O)[nH]c(-c3ccc(C(=O)N4CCN(C)CC4)cc3)cc12.O=CO [IQ-190],< 2 µM,
< 50 nM,,< 5000 nM,Cc1cccc2c(=O)[nH]c(-c3cnc(C(=O)N4CCN(C)CC4)nc3)cc12 [IQ-224],,
39 nM,4320 nM,,"COc1ccc(-c2cc3c(C)cccc3c(=O)[nH]2)nc1 [REF-8, reference compound]",,
< 50 nM,,< 5000 nM,CCc1cccc2c(=O)[nH]c(-c3ccc(CN4CCNCC4)cc3)cc12 [IQ-081],,

IC50 (TNKS1),IC50 ([2]; read-out: Wnt IC50),"IC50 [2, 3]",SMILES,Clonogenic SF50 (DLD1) (DLD1 cells),stabilize TNKS (Western blotting) [1]
< 50 nM,,< 5000 nM,CN(CC1CCNCC1)C(=O)c1ccc(-c2cc3c(Cl)cccc3c(=O)[nH]2)cc1 [IQ-094],,
< 20 nM,,,CC(=O)N1CCN(c2ccc(-c3cc4c(C)cccc4c(=O)[nH]3)cc2)CC1 [IQ-017],< 2 µM,
17 nM,62 nM,,"Cc1cccc2c(=O)[nH]c(-c3cnc(N4CCN(C)CC4)nc3)cc12 [IQ-025, 5-Methyl-3-[2-(4-methyl-piperazin-1-yl)-pyrimidin-5-yl]-2H-isoquinolin-1-one]",,
< 50 nM,,< 5000 nM,Cc1cccc2c(=O)[nH]c(-c3ccc(CN4CCC5(CCNC5)C4)nc3)cc12 (stereo not shown) [IQ-160],,
< 50 nM,,,Cc1cccc2c(=O)[nH]c(-c3cnc(N4CCN(C)CC4)c(F)c3)cc12 [IQ-021],< 2 µM,
16 nM,174 nM,,Cc1cc(F)cc2c(=O)[nH]c(-c3ccc(C(=O)N4CCN(C)CC4)nc3)cc12 [IQ-222],,
< 20 nM,,< 5000 nM,"Cc1cccc2c(=O)[nH]c(-c3ccc(C(=O)N(CCO)CCO)cc3)cc12 [IQ-191, N,N-Bis-(2-hydroxy-ethyl)-4-(5-methyl-1-oxo-1,2-dihydro-isoquinolin-3-yl)-benzamide]",,
< 50 nM,,< 5000 nM,Cc1cc(F)cc2c(=O)[nH]c(-c3ccc(C(C)C(=O)N4CC(O)C4)cc3)cc12 (stereo not shown) [IQ-216],,
< 50 nM,,,Cc1cccc2c(=O)[nH]c(-c3ccc(CN4CCN(C)CC4)nc3)cc12.O=CO [IQ-057],< 2 µM,
< 20 nM,,,CC(=O)N1CCN(c2ccc(-c3cc4c(C)cccc4c(=O)[nH]3)cn2)CC1 [IQ-005],< 2 µM,
< 20 nM,,< 5000 nM,"Cc1cccc2c(=O)[nH]c(-c3ccc(C(=O)N(C)CC4CCNCC4)cc3)cc12 [IQ-093, N-Methyl-4-(5-methyl-1-oxo-1,2-dihydro-isoquinolin-3-yl)-N-piperidin-4-ylmethyl-benzamide]",,
< 50 nM,,< 5000 nM,CN(C)CCOc1ccc(-c2cc3c(F)cccc3c(=O)[nH]2)cc1 [IQ-129],< 2 µM,
< 50 nM,,,"Cc1cccc2c(=O)[nH]c(-c3ccc(CN4CCN(C(=O)NC(C)(C)C)CC4)cc3)cc12 [IQ-068, 4-[4-(5-methyl-1-oxo-1,2-dihydro-isoquinolin-3-yl)-benzyl]-piperazine-1-carboxylic acid tert-butylamide]",< 2 µM,
42 nM,> 10000 nM,,"CN1CCN(C(=O)c2ccc(-c3cc4c(O)cccc4c(=O)[nH]3)cn2)CC1 [REF-7, reference compound]",,
< 50 nM,,< 5000 nM,"CC(C)(C)OC(=O)N1CCN(Cc2ccc(-c3cc4c(Br)cccc4c(=O)[nH]3)cc2)CC1 [IQ-149, 4-[4-(5-Bromo-1-oxo-1,2-dihydro-isoquinolin-3-yl)-benzyl]-piperazine-1-carboxylic acid tert-butyl ester]",< 2 µM,
